Columns and labels:
[1] = target: T1, Peroxisome proliferator-activated receptor alpha (Homo sapiens, UniProt Q07869); test: Displacement of [3H]GW 2433 from human PPARalpha by scintillation proximity assay
T1 sequence (Q07869 whole entry): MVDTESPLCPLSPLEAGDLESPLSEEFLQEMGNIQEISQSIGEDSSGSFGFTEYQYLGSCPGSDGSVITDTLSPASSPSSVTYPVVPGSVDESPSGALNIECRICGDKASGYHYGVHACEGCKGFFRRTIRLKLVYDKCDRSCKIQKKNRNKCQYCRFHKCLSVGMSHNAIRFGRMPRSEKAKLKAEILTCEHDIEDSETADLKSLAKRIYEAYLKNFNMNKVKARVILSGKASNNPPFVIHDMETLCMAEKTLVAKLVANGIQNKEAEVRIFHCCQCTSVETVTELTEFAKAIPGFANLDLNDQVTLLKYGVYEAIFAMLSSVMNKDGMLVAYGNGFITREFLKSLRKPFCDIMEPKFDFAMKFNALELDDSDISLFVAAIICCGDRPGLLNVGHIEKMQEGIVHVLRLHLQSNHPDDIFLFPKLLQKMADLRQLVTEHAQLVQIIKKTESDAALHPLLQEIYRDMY

[2] = target: T2, Peroxisome proliferator-activated receptor gamma (Homo sapiens, UniProt P37231)
T2 sequence (P37231 whole entry): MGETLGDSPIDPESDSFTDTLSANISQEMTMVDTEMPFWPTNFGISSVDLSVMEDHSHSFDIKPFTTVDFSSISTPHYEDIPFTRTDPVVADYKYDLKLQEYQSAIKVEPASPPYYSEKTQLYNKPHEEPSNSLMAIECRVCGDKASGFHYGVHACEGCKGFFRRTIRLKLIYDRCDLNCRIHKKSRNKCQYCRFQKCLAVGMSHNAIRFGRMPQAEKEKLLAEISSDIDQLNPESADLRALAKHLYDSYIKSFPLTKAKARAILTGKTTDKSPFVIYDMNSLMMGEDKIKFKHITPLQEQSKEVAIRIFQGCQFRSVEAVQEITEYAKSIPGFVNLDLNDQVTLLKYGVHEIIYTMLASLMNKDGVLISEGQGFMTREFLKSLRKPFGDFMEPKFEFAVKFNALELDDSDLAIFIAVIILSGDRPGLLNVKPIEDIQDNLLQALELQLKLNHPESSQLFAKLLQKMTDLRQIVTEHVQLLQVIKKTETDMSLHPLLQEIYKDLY
Description: Displacement of [3H]GW 2433 from human PPARgamma by scintillation proximity assay

[3] = target: T3, Peroxisome proliferator-activated receptor delta (Homo sapiens, UniProt Q03181)
T3 sequence (Q03181 whole entry): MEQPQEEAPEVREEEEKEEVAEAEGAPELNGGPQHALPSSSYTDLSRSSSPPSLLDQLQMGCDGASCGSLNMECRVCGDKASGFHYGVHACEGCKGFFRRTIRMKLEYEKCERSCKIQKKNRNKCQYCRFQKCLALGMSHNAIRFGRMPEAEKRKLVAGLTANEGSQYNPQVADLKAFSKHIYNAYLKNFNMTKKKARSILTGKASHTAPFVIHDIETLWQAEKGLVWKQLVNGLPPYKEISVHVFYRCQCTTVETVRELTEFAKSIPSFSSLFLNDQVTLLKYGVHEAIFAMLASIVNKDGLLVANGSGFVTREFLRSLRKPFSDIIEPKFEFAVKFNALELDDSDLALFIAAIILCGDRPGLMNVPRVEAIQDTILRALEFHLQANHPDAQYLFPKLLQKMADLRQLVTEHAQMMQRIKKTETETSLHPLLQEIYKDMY
Description: Displacement of [3H]GW 2433 from human PPARdelta by scintillation proximity assay

[4] = target: T3, Peroxisome proliferator-activated receptor delta; remark: listed apart in the source
Description: Partial agonist activity at human PPARdelta expressed in african green monkey CV1 cells transfected with Gal4 assessed as beta-galactosidase activity by transactivation assay

Compound: CCCCN(c1cc(-c2ccc(Cl)cc2)cc(C(F)(F)F)c1)S(=O)(=O)c1ccc(OC(C)C(=O)O)c(C)c1C (stereo not given)
- IC50 [1]: 12.6 µM
- IC50 [2]: 5.01 µM
- IC50 [3]: 0.0631 µM
- EC50 [4]: 0.1 µM

Compound: CCCCN(c1cccc(-c2ccc(Cl)cc2)c1C)S(=O)(=O)c1ccc(O[C@@H](C)C(=O)O)c(C)c1C
- IC50 [1]: 15.8 µM
- IC50 [3]: 0.631 µM
- EC50 [4]: 0.316 µM

Compound: CCCCCN(c1cccc(-c2ccc(Cl)cc2)c1C)S(=O)(=O)c1ccc(OC(C)C(=O)O)c(C)c1C (stereo not given)
- IC50 [1]: 15.8 µM
- IC50 [3]: 0.794 µM
- EC50 [4]: 0.398 µM

Compound: CCCCN(c1cccc(-c2ccc(Cl)cc2)c1C)S(=O)(=O)c1ccc(OC(CCC)C(=O)O)c(C)c1C (stereo not given)
- IC50 [1]: 10 µM
- IC50 [3]: 0.158 µM
- EC50 [4]: > 10 µM

Compound: CCCCN(c1cccc(-c2ccc(Cl)cc2)c1C)S(=O)(=O)c1ccc(OCC(=O)O)c(C)c1C
- IC50 [1]: 6.31 µM
- IC50 [2]: 2.51 µM
- IC50 [3]: 0.0126 µM
- EC50 [4]: 0.002 µM

Compound: CCCCN(c1cccc(-c2ccc(Cl)cc2)c1C)S(=O)(=O)c1ccc(OC(C)C(=O)O)c(OC)c1Cl (stereo not given)
- IC50 [1]: 15.8 µM
- IC50 [3]: 0.158 µM
- EC50 [4]: 0.316 µM

Compound: CCCCN(c1cccc(-c2ccc(OC(F)(F)F)cc2)c1C)S(=O)(=O)c1ccc(OC(C)C(=O)O)c(C)c1C (stereo not given)
- IC50 [1]: 10 µM
- IC50 [3]: 0.0794 µM
- EC50 [4]: 0.0398 µM

Compound: CCCCC(Oc1ccc(S(=O)(=O)N(CCCC)c2cccc(-c3ccc(Cl)cc3)c2C)c(C)c1C)C(=O)O (stereo not given)
- IC50 [1]: 10 µM
- IC50 [3]: 0.158 µM
- EC50 [4]: > 10 µM

Compound: Cc1c(-c2ccc(Cl)cc2)cccc1N(CC1CCC1)S(=O)(=O)c1ccc(OC(C)C(=O)O)c(C)c1C (stereo not given)
- IC50 [1]: 12.6 µM
- IC50 [3]: 1 µM
- EC50 [4]: 0.501 µM

Compound: CCCCN(c1cccc(-c2ccc(Cl)cc2)c1OC)S(=O)(=O)c1ccc(OC(C)C(=O)O)c(C)c1C (stereo not given)
- IC50 [1]: 12.6 µM
- IC50 [3]: 0.0251 µM
- EC50 [4]: 0.02 µM

Compound: CCCCN(c1cccc(-c2ccc(Cl)cc2)c1C)S(=O)(=O)c1ccc(OC(C)C(=O)O)c(F)c1OC (stereo not given)
- IC50 [1]: 15.8 µM

Compound: CCCCN(c1cc(-c2ccc(Cl)cc2)ccc1OC(F)(F)F)S(=O)(=O)c1ccc(OC(C)C(=O)O)c(C)c1C (stereo not given)
- IC50 [1]: 12.6 µM
- IC50 [2]: 10 µM
- IC50 [3]: 3.16 µM
- EC50 [4]: 1 µM

Compound: CCCCN(c1cccc(-c2ccc(Cl)cc2)c1C)S(=O)(=O)c1ccc(OC(C)C(=O)O)c(F)c1F (stereo not given)
- IC50 [1]: 10 µM
- IC50 [3]: 0.631 µM

Compound: Cc1c(-c2ccc(Cl)cc2)cccc1N(CC1CC1)S(=O)(=O)c1ccc(OC(C)C(=O)O)c(C)c1C (stereo not given)
- IC50 [1]: 15.8 µM
- IC50 [3]: 0.794 µM
- EC50 [4]: 0.794 µM

Compound: COCCN(c1cccc(-c2ccc(Cl)cc2)c1C)S(=O)(=O)c1ccc(OC(C)C(=O)O)c(C)c1C (stereo not given)
- IC50 [1]: > 20 µM
- IC50 [3]: 0.501 µM
- EC50 [4]: 0.501 µM

Compound: CCCCN(c1cccc(-c2ccc(Cl)cc2)c1C)S(=O)(=O)c1ccc(OC(C)C(=O)O)c(OC)c1OC (stereo not given)
- IC50 [1]: > 25.1 µM
- IC50 [3]: 5.01 µM
- EC50 [4]: > 10 µM

Compound: CCCCN(c1cccc(-c2ccc(Cl)cc2)c1Cl)S(=O)(=O)c1ccc(OC(C)C(=O)O)c(C)c1C (stereo not given)
- IC50 [1]: 12.6 µM
- IC50 [3]: 0.00794 µM
- EC50 [4]: 0.01 µM

Compound: CCCN(c1cccc(-c2ccc(Cl)cc2)c1C)S(=O)(=O)c1ccc(OC(C)C(=O)O)c(C)c1C (stereo not given)
- IC50 [1]: 20 µM
- IC50 [3]: 0.126 µM
- EC50 [4]: 0.0794 µM

Compound: CCCCN(c1cc(-c2ccc(Cl)cc2)ccc1C)S(=O)(=O)c1ccc(OC(C)C(=O)O)c(C)c1C (stereo not given)
- IC50 [1]: 10 µM
- IC50 [2]: 6.31 µM
- IC50 [3]: 1.58 µM
- EC50 [4]: 0.794 µM

Compound: CCCCN(c1cccc(-c2ccc(C(F)(F)F)cc2)c1C)S(=O)(=O)c1ccc(OC(C)C(=O)O)c(C)c1C (stereo not given)
- IC50 [1]: 15.8 µM
- IC50 [3]: 0.0158 µM

Compound: CCCCN(c1cccc(-c2ccc(Cl)cc2)c1C)S(=O)(=O)c1ccc(OC(CC)C(=O)O)c(C)c1C (stereo not given)
- IC50 [1]: 15.8 µM
- IC50 [3]: 0.0631 µM
- EC50 [4]: 0.126 µM

Compound: CCCCN(c1cccc(-c2ccc(Cl)cc2)c1C)S(=O)(=O)c1ccc(O[C@H](C)C(=O)O)c(C)c1C
- IC50 [1]: 20 µM
- IC50 [3]: 0.0251 µM
- EC50 [4]: 0.0126 µM

Compound: CCCCN(c1cccc(-c2ccc(Cl)cc2)c1C)S(=O)(=O)c1ccc(OC(C)C(=O)O)c(C2CCCCC2)c1 (stereo not given)
- IC50 [1]: 15.8 µM
- IC50 [2]: 7.94 µM
- IC50 [3]: 0.0158 µM
- EC50 [4]: 0.0158 µM

Compound: CCCCN(c1cccc(-c2ccc(OC)cc2)c1C)S(=O)(=O)c1ccc(OC(C)C(=O)O)c(C)c1C (stereo not given)
- IC50 [1]: 15.8 µM
- IC50 [3]: 0.1 µM
- EC50 [4]: 0.0398 µM

Compound: CCCCN(c1ccc(F)c(-c2ccc(Cl)cc2)c1)S(=O)(=O)c1ccc(OC(C)C(=O)O)c(C)c1C (stereo not given)
- IC50 [1]: 20 µM
- IC50 [2]: 2 µM
- IC50 [3]: 0.2 µM
- EC50 [4]: 0.0398 µM

Compound: CCCCN(c1cc(-c2ccc(Cl)cc2)c(F)cc1C)S(=O)(=O)c1ccc(OC(C)C(=O)O)c(C)c1C (stereo not given)
- IC50 [1]: 10 µM
- IC50 [2]: 7.94 µM
- IC50 [3]: 5.01 µM
- EC50 [4]: 3.16 µM

Compound: CCCCN(c1cc(-c2ccc(Cl)cc2)c(F)cc1F)S(=O)(=O)c1ccc(OC(C)C(=O)O)c(C)c1C (stereo not given)
- IC50 [1]: 10 µM
- IC50 [2]: 1.58 µM
- IC50 [3]: 3.16 µM
- EC50 [4]: 1.26 µM

Compound: CCCCN(c1ccc(C)c(-c2ccc(Cl)cc2)c1)S(=O)(=O)c1ccc(OC(C)C(=O)O)c(C)c1C (stereo not given)
- IC50 [1]: 20 µM
- IC50 [2]: 3.16 µM
- IC50 [3]: 0.398 µM
- EC50 [4]: 0.126 µM

Compound: Cc1c(-c2ccc(Cl)cc2)cccc1N(CCCC(F)(F)F)S(=O)(=O)c1ccc(OC(C)C(=O)O)c(C)c1C (stereo not given)
- IC50 [1]: 20 µM
- IC50 [3]: 1.26 µM
- EC50 [4]: 2 µM

Compound: CCCCN(c1cccc(-c2cccc(Cl)c2)c1C)S(=O)(=O)c1ccc(OC(C)C(=O)O)c(C)c1C (stereo not given)
- IC50 [1]: 7.94 µM
- IC50 [3]: 0.631 µM
- EC50 [4]: 0.501 µM

Compound: CCCCN(c1cccc(-c2ccc(C)cc2)c1C)S(=O)(=O)c1ccc(OC(C)C(=O)O)c(C)c1C (stereo not given)
- IC50 [1]: 15.8 µM
- IC50 [3]: 0.0794 µM
- EC50 [4]: 0.0316 µM

Compound: CCCCN(c1cccc(-c2ccc(Cl)cc2)c1C)S(=O)(=O)c1ccc(OC(C)C(=O)O)c(Cl)c1Cl (stereo not given)
- IC50 [1]: 10 µM
- IC50 [3]: 0.0794 µM
- EC50 [4]: 0.0631 µM

Compound: CCCCN(c1cccc(-c2ccc(Cl)cc2)c1C)S(=O)(=O)c1ccc(OC(C)C(=O)O)c(F)c1Cl (stereo not given)
- IC50 [1]: 12.6 µM
- IC50 [3]: 0.251 µM
- EC50 [4]: 0.398 µM

Compound: CCCCN(c1cccc(-c2ccccc2Cl)c1C)S(=O)(=O)c1ccc(OC(C)C(=O)O)c(C)c1C (stereo not given)
- IC50 [1]: 12.6 µM
- IC50 [3]: 1.58 µM
- EC50 [4]: 2 µM

Compound: CCCCN(c1cccc(-c2ccc(Cl)c(Cl)c2)c1C)S(=O)(=O)c1ccc(OC(C)C(=O)O)c(C)c1C (stereo not given)
- IC50 [1]: 20 µM
- IC50 [3]: 0.126 µM
- EC50 [4]: 0.126 µM

Reference: ChEMBL document CHEMBL1759972, “Phenoxyacetic acids as PPARδ partial agonists: synthesis, optimization, and in vivo efficacy” (Bioorg Med Chem Lett, 2011)
